Values of other authors in patent US20190358212A1, “USES OF EGFR/HER2 INHIBITOR COMBINED WITH PYRIMIDINE-TYPE ANTI-METABOLIC DRUG” (Jiangsu Hengrui Medicine Co., Ltd., priority 2017, published 2019).

Experiments:
[1] = system: HER2+ metastatic breast cancer; details: J Clin Oncol 33, 2015 (suppl; abstr e11596)
[2] = molecular target: HER2 (Homo sapiens, UniProt P04626); details: CN102471312A
[3] = molecular target: EGFR (Homo sapiens, UniProt P00533); details: CN102471312A
Sequence of EGFR (P00533 25-1210): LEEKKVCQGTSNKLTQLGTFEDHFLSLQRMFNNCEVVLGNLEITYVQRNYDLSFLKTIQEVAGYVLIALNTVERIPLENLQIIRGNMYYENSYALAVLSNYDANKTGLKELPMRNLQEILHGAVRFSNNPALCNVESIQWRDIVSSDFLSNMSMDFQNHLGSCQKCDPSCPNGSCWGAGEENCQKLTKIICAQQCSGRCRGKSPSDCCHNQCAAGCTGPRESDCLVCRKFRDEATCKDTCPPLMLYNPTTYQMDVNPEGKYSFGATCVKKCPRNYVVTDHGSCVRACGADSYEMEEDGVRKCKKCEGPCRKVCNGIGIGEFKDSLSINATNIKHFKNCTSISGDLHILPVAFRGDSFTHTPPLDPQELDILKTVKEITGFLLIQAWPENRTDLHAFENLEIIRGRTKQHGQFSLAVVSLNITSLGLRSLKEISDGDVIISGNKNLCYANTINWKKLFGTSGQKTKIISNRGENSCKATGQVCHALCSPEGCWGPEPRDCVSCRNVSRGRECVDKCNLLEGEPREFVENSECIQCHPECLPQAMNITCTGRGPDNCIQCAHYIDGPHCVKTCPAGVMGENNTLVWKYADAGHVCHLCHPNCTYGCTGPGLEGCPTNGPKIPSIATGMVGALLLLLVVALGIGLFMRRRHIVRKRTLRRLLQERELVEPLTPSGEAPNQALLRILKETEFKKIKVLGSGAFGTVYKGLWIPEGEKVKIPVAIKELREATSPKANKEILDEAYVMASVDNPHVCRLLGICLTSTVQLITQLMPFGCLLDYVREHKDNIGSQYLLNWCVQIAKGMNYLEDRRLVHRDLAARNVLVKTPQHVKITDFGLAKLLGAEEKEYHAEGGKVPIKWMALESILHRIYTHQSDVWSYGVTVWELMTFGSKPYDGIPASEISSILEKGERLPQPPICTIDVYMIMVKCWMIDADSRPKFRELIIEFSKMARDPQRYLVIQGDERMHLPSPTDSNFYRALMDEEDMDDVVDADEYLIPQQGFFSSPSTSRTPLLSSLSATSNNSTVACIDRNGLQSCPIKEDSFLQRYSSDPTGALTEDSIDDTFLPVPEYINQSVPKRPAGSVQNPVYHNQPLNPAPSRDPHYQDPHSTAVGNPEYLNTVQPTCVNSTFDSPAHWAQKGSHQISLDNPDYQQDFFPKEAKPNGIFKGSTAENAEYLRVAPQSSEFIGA

Sequence of HER2 (P04626 23-1255): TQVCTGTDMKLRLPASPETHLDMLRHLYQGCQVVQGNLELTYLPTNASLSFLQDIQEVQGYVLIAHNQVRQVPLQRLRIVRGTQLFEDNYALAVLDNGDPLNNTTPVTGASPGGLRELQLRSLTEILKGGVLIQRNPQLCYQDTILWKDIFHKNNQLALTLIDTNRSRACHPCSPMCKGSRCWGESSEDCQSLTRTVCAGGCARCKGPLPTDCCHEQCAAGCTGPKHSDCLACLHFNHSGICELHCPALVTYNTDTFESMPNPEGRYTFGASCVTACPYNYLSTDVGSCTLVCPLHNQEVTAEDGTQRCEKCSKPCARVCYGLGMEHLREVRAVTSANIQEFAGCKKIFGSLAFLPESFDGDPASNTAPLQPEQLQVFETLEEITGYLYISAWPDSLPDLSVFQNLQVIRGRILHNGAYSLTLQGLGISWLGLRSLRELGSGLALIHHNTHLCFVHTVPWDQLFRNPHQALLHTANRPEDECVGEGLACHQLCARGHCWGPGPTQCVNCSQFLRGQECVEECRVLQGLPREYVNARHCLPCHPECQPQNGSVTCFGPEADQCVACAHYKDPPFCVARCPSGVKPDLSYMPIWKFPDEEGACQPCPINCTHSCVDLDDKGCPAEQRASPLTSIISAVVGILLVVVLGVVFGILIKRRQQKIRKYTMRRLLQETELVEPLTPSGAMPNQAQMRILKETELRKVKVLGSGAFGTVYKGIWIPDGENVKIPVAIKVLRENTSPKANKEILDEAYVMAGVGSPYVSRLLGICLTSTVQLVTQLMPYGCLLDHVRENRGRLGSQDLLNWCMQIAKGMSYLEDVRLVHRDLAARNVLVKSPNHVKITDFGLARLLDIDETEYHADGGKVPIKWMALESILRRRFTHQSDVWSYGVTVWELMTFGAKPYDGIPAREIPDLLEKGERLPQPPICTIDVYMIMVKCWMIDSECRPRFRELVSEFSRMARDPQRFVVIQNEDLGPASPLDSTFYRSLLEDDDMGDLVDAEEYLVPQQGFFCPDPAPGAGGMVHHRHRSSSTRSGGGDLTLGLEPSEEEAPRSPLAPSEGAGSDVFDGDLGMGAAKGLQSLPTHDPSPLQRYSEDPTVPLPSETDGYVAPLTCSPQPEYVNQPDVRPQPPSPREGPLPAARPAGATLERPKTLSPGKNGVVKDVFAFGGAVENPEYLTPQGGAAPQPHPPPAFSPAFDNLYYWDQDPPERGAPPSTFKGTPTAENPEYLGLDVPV

CCOc1cc2ncc(C#N)c(Nc3ccc(OCc4ccccn4)c(Cl)c3)c2cc1NC(=O)/C=C/[C@H]1CCCN1C [Compound A, (E)-N-[4-[[3-chloro-4-(2-pyridylmethoxy)phenyl]amino]-3-cyano-7-ethoxy-6-quinolyl]-3-[(2R)-1-methylpyrrolidin-2-yl]prop-2-enamide]
effect on patients with HER2+ metastatic breast cancer [1]: a certain effect
inhibition effect on HER2 [2]: potent inhibition effect
inhibition effect on EGFR [3]: potent inhibition effect
